Measurements as given in patent publication US12077503B2, “Substituted cyclic amides and their use as herbicides” (FMC CORPORATION, priority 2015, dated 2024).
Where two headings read alike, the source gives them in different places.

Legend:
Experiment in all cases: Test A postemergence
Assay type in all cases: in vivo
[1] = tested on: Galium (catchweed bedstraw, Galium aparine); details: Galium, post-emergence, 240 h, postemergence; for pest or weed control at 125 g/ha: 125 g ai/ha; for pest or weed control at 500 g/ha: 500 g ai/ha, 0 to 100 scale, 0 is no effect, 100 is complete control
Method in brief: (§1)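 Seeds sprayed preemergence with a directed soil spray, or plants at 2 to 10 cm height and one- to two-leaf stage sprayed postemergence, with test chemicals in a non-phytotoxic solvent mixture containing surfactant, in loam soil–sand blend. Injury rated visually against untreated controls after about 10 d in greenhouse, 0 (no effect) to 100 (complete control).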

corn (Zea mays) = details: Zea mays, post-emergence, 240 h, postemergence; for plant injury at 125 g/ha: 125 g ai/ha; for plant injury at 500 g/ha: 500 g ai/ha, 0 to 100 scale, 0 is no effect, 100 is complete control
Method in brief: as §1

[2] = tested on: giant foxtail (Setaria faberii); details: Setaria faberi, post-emergence, 240 h, postemergence; for pest or weed control at 125 g/ha: 125 g ai/ha; for pest or weed control at 500 g/ha: 500 g ai/ha, 0 to 100 scale, 0 is no effect, 100 is complete control
Method in brief: as §1

[3] = tested on: ragweed (common ragweed, Ambrosia elatior); details: Ambrosia artemisiifolia, post-emergence, 240 h, postemergence; for pest or weed control at 125 g/ha: 125 g ai/ha; for pest or weed control at 500 g/ha: 500 g ai/ha, 0 to 100 scale, 0 is no effect, 100 is complete control
Method in brief: as §1

[4] = tested on: ryegrass, Italian (Italian ryegrass, Lolium multiflorum); details: Lolium multiflorum, post-emergence, 240 h, postemergence; for pest or weed control at 125 g/ha: 125 g ai/ha; for pest or weed control at 500 g/ha: 500 g ai/ha, 0 to 100 scale, 0 is no effect, 100 is complete control
Method in brief: as §1

[5] = tested on: wheat (Triticum aestivum); details: Triticum aestivum, post-emergence, 240 h, postemergence; for plant injury at 125 g/ha: 125 g ai/ha; for plant injury at 500 g/ha: 500 g ai/ha, 0 to 100 scale, 0 is no effect, 100 is complete control
Method in brief: as §1

[6] = visual injury on 0 to 100 scale (0 no effect, 100 complete control), approx. 10 d, read-out: Galium plant response rating
[7] = read-out: Galium plant response rating
[8] = visual injury on 0 to 100 scale (0 no effect, 100 complete control), approx. 10 d, read-out: Corn plant response rating
[9] = read-out: Corn plant response rating
[10] = visual injury on 0 to 100 scale (0 no effect, 100 complete control), approx. 10 d, read-out: Foxtail, Giant plant response rating
[11] = read-out: Foxtail, Giant plant response rating
[12] = visual injury on 0 to 100 scale (0 no effect, 100 complete control), approx. 10 d, read-out: Ragweed plant response rating
[13] = read-out: Ragweed plant response rating
[14] = visual injury on 0 to 100 scale (0 no effect, 100 complete control), approx. 10 d, read-out: Ryegrass, Italian plant response rating
[15] = read-out: Ryegrass, Italian plant response rating
[16] = visual injury on 0 to 100 scale (0 no effect, 100 complete control), approx. 10 d, read-out: Wheat plant response rating
[17] = read-out: Wheat plant response rating
[18] = visual injury vs untreated controls after approx. 10 d, 0 = no effect, 100 = complete control, read-out: Galium plant response rating (0 to 100 scale)
[19] = visual injury vs untreated controls after approx. 10 d, 0 = no effect, 100 = complete control, read-out: Corn plant response rating (0 to 100 scale)
[20] = visual injury vs untreated controls after approx. 10 d, 0 = no effect, 100 = complete control, read-out: Foxtail, Giant plant response rating (0 to 100 scale)
[21] = visual injury vs untreated controls after approx. 10 d, 0 = no effect, 100 = complete control, read-out: Ragweed plant response rating (0 to 100 scale)
[22] = visual injury vs untreated controls after approx. 10 d, 0 = no effect, 100 = complete control, read-out: Ryegrass, Italian plant response rating (0 to 100 scale)
[23] = visual injury vs untreated controls after approx. 10 d, 0 = no effect, 100 = complete control, read-out: Wheat plant response rating (0 to 100 scale)

SMILES | pest or weed control at 125 g/ha [1, 6] [%] | pest or weed control at 500 g/ha [1, 7] [%] | plant injury at 125 g/ha (corn (Zea mays); [8]) [%] | plant injury at 500 g/ha (corn (Zea mays); [9]) [%] | pest or weed control at 125 g/ha [2, 10] [%] | pest or weed control at 500 g/ha [2, 11] [%] | pest or weed control at 125 g/ha [3, 12] [%] | pest or weed control at 500 g/ha [3, 13] [%] | pest or weed control at 125 g/ha [4, 14] [%] | pest or weed control at 500 g/ha [4, 15] [%] | plant injury at 125 g/ha [5, 16] [%] | plant injury at 500 g/ha [5, 17] [%] | pest or weed control at 125 g/ha [1, 18] [%] | plant injury at 125 g/ha (corn (Zea mays); [19]) [%] | pest or weed control at 125 g/ha [2, 20] [%] | pest or weed control at 125 g/ha [3, 21] [%] | pest or weed control at 125 g/ha [4, 22] [%] | plant injury at 125 g/ha [5, 23] [%]
CN1C[C@H](c2csc(C(F)F)c2)[C@@H](C(=O)Nc2cccc(F)c2F)C1=O [Compound 1122] | 50 | 60 | 50 | 90 | 80 | 90 | 50 | 50 | 30 | 60 | 50 | 70 | – | – | – | – | – | –
CN1C[C@H](c2csc(C(F)F)c2)[C@@H](C(=O)Nc2ccccc2F)C1=O [Compound 1123] | 40 | 50 | 20 | 80 | 90 | 90 | 30 | 50 | 30 | 50 | 0 | 60 | – | – | – | – | – | –
CC(C)Oc1ccc([C@H]2CNC(=O)[C@@H]2C(=O)Nc2ccccc2F)cc1 [Compound 1135] | 0 | 0 | 0 | 0 | 0 | 0 | 0 | 0 | 0 | 0 | 0 | 0 | – | – | – | – | – | –
CC(C)Oc1ccc([C@H]2CNC(=O)[C@@H]2C(=O)Nc2cccc(F)c2F)cc1 [Compound 1136] | 0 | 20 | 0 | 0 | 20 | 90 | 0 | 0 | 0 | 0 | 0 | 0 | – | – | – | – | – | –
CC(C)Oc1ccc([C@H]2CNC(=O)[C@@H]2C(=O)Nc2ccc(F)cc2F)cc1 [Compound 1137] | 0 | 0 | 0 | 0 | 0 | 0 | 0 | 0 | 0 | 0 | 0 | 0 | – | – | – | – | – | –
CCc1cc(CC)cc([C@H]2CNC(=O)[C@@H]2C(=O)Nc2ccccc2F)c1 [Compound 1138] | 20 | 50 | 50 | 80 | 50 | 90 | 0 | 0 | 0 | 50 | 30 | 70 | – | – | – | – | – | –
CCc1ccc([C@H]2CNC(=O)[C@@H]2C(=O)Nc2cccc(F)c2C)cc1 [Compound 1177] | – | 50 | – | 40 | – | 70 | – | 0 | – | 40 | – | 30 | 20 | 20 | 50 | 0 | 40 | 20
CCc1ccc([C@H]2CNC(=O)[C@@H]2C(=O)Nc2ccccc2SC)cc1 [Compound 1178] | – | 30 | – | 0 | – | 30 | – | 20 | – | 0 | – | 0 | 30 | 0 | 0 | 0 | 0 | 0
CSc1ccccc1NC(=O)[C@H]1C(=O)N(C)C[C@@H]1c1ccc(C(F)(F)F)nc1 [Compound 1198] | – | 50 | – | 20 | – | 90 | – | 30 | – | 30 | – | 60 | 40 | 0 | 80 | 0 | 0 | 0
CN1C[C@H](c2ccc(C#N)cc2)[C@@H](C(=O)Nc2ccccc2F)C1=O [Compound 1207] | – | 40 | – | 0 | – | 90 | – | 30 | – | 0 | – | 0 | 20 | 0 | 50 | 0 | 0 | 0
CN1C[C@H](c2ccc(C#N)cc2)[C@@H](C(=O)Nc2cccc(F)c2F)C1=O [Compound 1208] | – | 50 | – | 50 | – | 90 | – | 40 | – | 0 | – | 20 | 40 | 20 | 70 | 0 | 0 | 0
